Values of other authors as cited in patent US20240189234A1, “SILICON PARTICLES FOR DRUG DELIVERY” (NACAMED AS, priority 2021, published 2024).

Conditions: calculated log P values from Foye's Principles of Medicinal Chemistry

Row | Compound | log P
1 | Cc1c(O)cccc1C(=O)N[C@@H](CSc1ccccc1)[C@H](O)CN1C[C@H]2CCCC[C@H]2C[C@H]1C(=O)NC(C)(C)C [nelfinavir] | 7.28
2 | CNCCC=C1c2ccccc2CCc2ccccc21 [nortriptyline] | 3.97
3 | CO[C@@H]1[C@@H](OC(N)=O)[C@@H](O)[C@H](Oc2ccc3c(O)c(NC(=O)c4ccc(O)c(CC=C(C)C)c4)c(=O)oc3c2C)OC1(C)C [novobiocin] | 3.74
4 | Cc1ccccc1C(OCCN(C)C)c1ccccc1 (stereo not drawn) [orphenadrine] | 3.33
5 | CCN(CC)CCCC(C)Nc1cc(OC)cc2cccnc12 (stereo not drawn) [pamaquine] | 4.38
6 | CC(C)(C)NC[C@H](O)COc1ccccc1C1CCCC1 [penbutolol] | 4.02
7 | CC(C)=CCN1CCC2(C)c3cc(O)ccc3CC1C2C (stereo not drawn) [pentazocine] | 4.15
8 | CCCN1C[C@H](CSC)C[C@@H]2c3cccc4[nH]cc(c34)C[C@H]21 [pergolide] | 3.90
9 | C1CCC(C(CC2CCCCN2)C2CCCCC2)CC1 (stereo not drawn) [perhexilene] | 6.46
10 | OCCN1CCN(CCCN2c3ccccc3Sc3ccc(Cl)cc32)CC1 [perphenazine] | 3.94
11 | c1ccc(C2(N3CCCCC3)CCCCC2)cc1 [phencyclidine] | 4.25
12 | CN1CCC2=C(C1)C(c1ccccc1)c1ccccc12 (stereo not drawn) [phenindamine] | 3.81
13 | O=C1c2ccccc2C(=O)C1c1ccccc1 [phenindione] | 3.19
14 | CC(COc1ccccc1)N(CCCl)Cc1ccccc1 (stereo not drawn) [phenoxybenzamine] | 3.69
15 | Cc1ccc(N(CC2=NCCN2)c2cccc(O)c2)cc1 [phentolamine] | 4.08
16 | CN(C)CCOc1ccccc1Cc1ccccc1 [phenyltoloxamine] | 3.46
17 | O=c1[nH]c2ccccc2n1C1CCN(CCCC(c2ccc(F)cc2)c2ccc(F)cc2)CC1 [pimozide] | 5.57
18 | OC(c1ccccc1)(c1ccccc1)C1CCCCN1 (stereo not drawn) [pipradrol] | 3.61

Row | Compound | log P
19 | CC(C)(C)C(=O)OCOC(=O)[C@@H]1N2C(=O)[C@@H](NC(=O)[C@H](N)c3ccccc3)[C@H]2SC1(C)C [pivampicillin] | 3.88
20 | CC(=O)Oc1cc2c(s1)CCN(C(C(=O)C1CC1)c1ccccc1F)C2 (stereo not drawn) [prasugel] | 4.31
21 | O=C1CN=C(c2ccccc2)c2cc(Cl)ccc2N1CC1CC1 [prazepam] | 3.70
22 | CN1CCN(CCCN2c3ccccc3Sc3ccc(Cl)cc32)CC1 [prochlorperazine] | 4.65
23 | CN(C)CCCN1c2ccccc2Sc2ccccc21 [promazine] | 4.69
24 | CC(CN1c2ccccc2Sc2ccccc21)N(C)C (stereo not drawn) [promethazine] | 4.89
25 | CCC(=O)O[C@](Cc1ccccc1)(c1ccccc1)[C@H](C)CN(C)C [propoxyphene] | 4.10
26 | c1ccc2c(c1)Sc1ccccc1N2CCN1CCCC1 [pyrathiazine] | 4.15
27 | Clc1ccc(C/C(=C\CN2CCCC2)c2ccccc2)cc1 [pyrrobutamine] | 4.57
28 | CCN(CC)CCCC(C)Nc1c2ccc(Cl)cc2nc2ccc(OC)cc12 (stereo not drawn) [quinacrine] | 5.59
29 | COC(=O)[C@H]1[C@H]2C[C@@H]3c4[nH]c5cc(OC)ccc5c4CCN3C[C@H]2C[C@@H](OC(=O)c2cc(OC)c(OC)c(OC)c2)[C@@H]1OC [reserpine] | 3.65
30 | OCc1cc(C(O)CNCCCCCCOCCCCc2ccccc2)ccc1O (stereo not drawn) [salmeterol] | 3.71
31 | O=C(Oc1ccccc1C(=O)O)c1ccccc1O [salsalate] | 3.29
32 | CN[C@H]1CC[C@@H](c2ccc(Cl)c(Cl)c2)c2ccccc21 [sertraline] | 5.08
33 | O=C(CCCN1CCC2(CC1)C(=O)NCN2c1ccccc1)c1ccc(F)cc1 [spiperone] | 3.25
34 | O=C(O)c1cc(/N=N/c2ccc(S(=O)(=O)Nc3ccccn3)cc2)ccc1O [sulfasalazine] | 3.05
35 | CCCCNc1ccc(C(=O)OCCN(C)C)cc1 [tetracaine] | 3.75
36 | CCCCCc1cc(O)c2c(c1)OC(C)(C)[C@@H]1CCC(C)=C[C@@H]21 [tetrahydrocannabinol] | 6.84
